Data reported in ChEMBL document CHEMBL1201862, “PubChem BioAssay data set” (2004).
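Cultured in 96-well plates, cells were exposed to test compound for 48 hours across five concentrations. The concentration for 50% growth inhibition is given as GI50.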 Activity calls are given as the source filed them. No stated cut-off is given here; in the data, active = GI50 up to about 1.1 µM and inactive = higher.

How the values were obtained:
Assay in all cases: inhibition of tumour cell growth, NCI panel, 48 h
SNB-19 = test system: SNB-19
NCI-H23 = test system: NCI-H23
SNB-75 = test system: SNB-75
A498 = test system: A498
OVCAR-3 = test system: OVCAR-3
SK-OV-3 = test system: SK-OV-3
UACC-257 = test system: UACC-257
K562 = test system: K562
OVCAR-4 = test system: OVCAR-4
SK-MEL-5 = test system: SK-MEL-5
HCT-116 = test system: HCT-116
786-0 = test system: 786-0
CCRF-CEM = test system: CCRF-CEM
NCI-H522 = test system: NCI-H522
SR = test system: SR
OVCAR-8 = test system: OVCAR-8
HCC 2998 = test system: HCC 2998
HOP-92 = test system: HOP-92
M14 = test system: M14
SF-268 = test system: SF-268
MDA-MB-231 = test system: MDA-MB-231
SF-539 = test system: SF-539
HL-60 = test system: HL-60
Hs-578T = test system: Hs-578T
IGROV-1 = test system: IGROV-1
MCF7 = test system: MCF7
SF-295 = test system: SF-295
TK-10 = test system: TK-10
NCI-H460 = test system: NCI-H460
RXF 393 = test system: RXF 393
HCT-15 = test system: HCT-15
U-251 = test system: U-251
ACHN = test system: ACHN
MOLT-4 = test system: MOLT-4
HT-29 = test system: HT-29
NCI/ADR-RES = test system: NCI/ADR-RES
COLO 205 = test system: COLO 205
OVCAR-5 = test system: OVCAR-5
UACC-62 = test system: UACC-62
SK-MEL-2 = test system: SK-MEL-2
Malme-3M = test system: Malme-3M
PC-3 = test system: PC-3
SN12C = test system: SN12C
NCI-H226 = test system: NCI-H226
LOX IMVI = test system: LOX IMVI
SW-620 = test system: SW-620
KM12 = test system: KM12
MDA-MB-435 = test system: MDA-MB-435
EKVX = test system: EKVX
HOP-62 = test system: HOP-62
CAKI-1 = test system: CAKI-1
T47D = test system: T47D
RPMI-8226 = test system: RPMI-8226
A549 = test system: A549
DU-145 = test system: DU-145
SK-MEL-28 = test system: SK-MEL-28

COc1ccc2cc1Oc1ccc(cc1)C[C@@H]1c3cc(c(OC)cc3CCN1C)Oc1c(OC)c(OC)cc3c1[C@H](C2)N(C)CC3 [ISOTETRANDRINE]
GI50 (SNB-19): 20.4 µM (inactive) | GI50 (NCI-H23): 15.8 µM (inactive) | GI50 (SNB-75): 12.4 µM (inactive) | GI50 (A498): 19.7 µM (inactive) | GI50 (OVCAR-3): 18.2 µM (inactive) | GI50 (SK-OV-3): 40.2 µM (inactive) | GI50 (UACC-257): 11.3 µM (inactive) | GI50 (K562): 4.16 µM (inactive) | GI50 (OVCAR-4): 17.9 µM (inactive) | GI50 (SK-MEL-5): 11.8 µM (inactive) | GI50 (HCT-116): 17.7 µM (inactive) | GI50 (786-0): 24.7 µM (inactive) | GI50 (CCRF-CEM): 16.9 µM (inactive) | GI50 (NCI-H522): 12.6 µM (inactive) | GI50 (SR): 2.41 µM (inactive) | GI50 (OVCAR-8): 17.9 µM (inactive) | GI50 (HCC 2998): 12.7 µM (inactive) | GI50 (HOP-92): > 10 µM (inactive) | GI50 (M14): 11.1 µM (inactive) | GI50 (SF-268): 21.7 µM (inactive) | GI50 (MDA-MB-231): 14.7 µM (inactive) | GI50 (SF-539): 8.89 µM (inactive) | GI50 (HL-60): 10.8 µM (inactive) | GI50 (Hs-578T): 16.7 µM (inactive) | GI50 (IGROV-1): 20.7 µM (inactive) | GI50 (MCF7): 14 µM (inactive) | GI50 (SF-295): 16.3 µM (inactive) | GI50 (TK-10): 19.1 µM (inactive) | GI50 (NCI-H460): 15.2 µM (inactive) | GI50 (RXF 393): 1.44 µM (inactive) | GI50 (HCT-15): 11.2 µM | GI50 (U-251): 22.2 µM (inactive) | GI50 (ACHN): 13.4 µM (inactive)

Fc1c(F)c(F)c2c(c1F)CSc1nc3ccccc3n1-2
GI50 (SNB-19): > 100 µM (inactive) | GI50 (MOLT-4): > 100 µM (inactive) | GI50 (NCI-H23): > 100 µM (inactive) | GI50 (SNB-75): > 100 µM (inactive) | GI50 (A498): > 100 µM (inactive) | GI50 (HT-29): > 100 µM (inactive) | GI50 (OVCAR-3): > 100 µM (inactive) | GI50 (SK-OV-3): > 100 µM (inactive) | GI50 (UACC-257): > 100 µM (inactive) | GI50 (K562): > 100 µM (inactive) | GI50 (OVCAR-4): > 100 µM (inactive) | GI50 (SK-MEL-5): > 100 µM (inactive) | GI50 (NCI/ADR-RES): > 100 µM (inactive) | GI50 (HCT-116): > 100 µM (inactive) | GI50 (786-0): > 100 µM (inactive) | GI50 (CCRF-CEM): > 100 µM (inactive) | GI50 (NCI-H522): > 100 µM (inactive) | GI50 (SR): > 100 µM (inactive) | GI50 (COLO 205): > 100 µM (inactive) | GI50 (OVCAR-8): > 100 µM (inactive) | GI50 (HCC 2998): > 100 µM (inactive) | GI50 (HOP-92): > 100 µM (inactive) | GI50 (OVCAR-5): > 100 µM (inactive) | GI50 (M14): > 100 µM (inactive) | GI50 (UACC-62): > 100 µM (inactive) | GI50 (SK-MEL-2): > 100 µM (inactive) | GI50 (SF-268): > 100 µM (inactive) | GI50 (Malme-3M): > 100 µM (inactive) | GI50 (PC-3): > 100 µM (inactive) | GI50 (MDA-MB-231): > 100 µM (inactive) | GI50 (SF-539): > 100 µM (inactive) | GI50 (SN12C): > 100 µM (inactive) | GI50 (NCI-H226): > 100 µM (inactive) | GI50 (HL-60): > 100 µM (inactive) | GI50 (LOX IMVI): > 100 µM (inactive) | GI50 (Hs-578T): > 100 µM (inactive) | GI50 (SW-620): > 100 µM (inactive) | GI50 (KM12): > 100 µM (inactive) | GI50 (IGROV-1): > 100 µM (inactive) | GI50 (MDA-MB-435): > 100 µM (inactive) | GI50 (EKVX): 5.16 µM (inactive) | GI50 (HOP-62): > 100 µM (inactive) | GI50 (CAKI-1): > 100 µM (inactive) | GI50 (MCF7): > 100 µM (inactive) | GI50 (T47D): > 100 µM (inactive) | GI50 (SF-295): > 100 µM (inactive) | GI50 (TK-10): > 100 µM (inactive) | GI50 (NCI-H460): > 100 µM (inactive) | GI50 (RPMI-8226): > 100 µM (inactive) | GI50 (RXF 393): > 100 µM (inactive) | GI50 (A549): > 100 µM (inactive) | GI50 (HCT-15): > 100 µM | GI50 (DU-145): > 100 µM (inactive) | GI50 (U-251): > 100 µM (inactive) | GI50 (SK-MEL-28): > 100 µM (inactive) | GI50 (ACHN): > 100 µM (inactive)
